Assay results: patent US6632799B2, “Injectable ready-to-use solutions containing an antitumor anthracycline glycoside” (Pharmacia & Upjohn Company, priority 1985, dated 2003)
Structures can show the parent of a compound that is named as a salt.

Assay: pH-stability profile at 55° C. of doxorubicin.HCl solutions in sterile water, 5% dextrose, 0.9% saline
Type: physicochemical

COc1cccc2c1C(=O)c1c(O)c3c(c(O)c1C2=O)C[C@@](O)(C(=O)CO)C[C@@H]3O[C@H]1C[C@H](N)[C@H](O)[C@H](C)O1 [Doxorubicin.HCl, doxorubicin hydrochloride]
pH range of maximum stability (2 mg/ml, 55° C., all three media, ±0.2): 3.0-3.5
Kobs × 10^3 (0.9% saline, Acetate pH 4.0, 55° C.): 215.7 1/days
Kobs × 10^3 (0.9% saline, Acetate pH 5.0, 55° C.): 301.2 1/days
Kobs × 10^3 (0.9% saline, Acetate pH 5.5, 55° C.): 430.3 1/days
Kobs × 10^3 (0.9% saline, Formate pH 3.5, 55° C.): 148.1 1/days
Kobs × 10^3 (0.9% saline, Glycine-HCl pH 2.0, 55° C.): 362.4 1/days
Kobs × 10^3 (0.9% saline, Glycine-HCl pH 2.5, 55° C.): 276.5 1/days
Kobs × 10^3 (0.9% saline, Glycine-HCl pH 3.0, 55° C.): 133.2 1/days
Doxorubicin.HCl % stability (0.9% saline, pH 2.5 buffer, 55° C., 0 hours): 100.0%
Doxorubicin.HCl % stability (0.9% saline, pH 2.5 buffer, 55° C., 16 hours): 85.8%
Doxorubicin.HCl % stability (0.9% saline, pH 2.5 buffer, 55° C., 24 hours): 82.3%
Doxorubicin.HCl % stability (0.9% saline, pH 2.5 buffer, 55° C., 34 hours): 70.3%
Doxorubicin.HCl % stability (0.9% saline, pH 2.5 buffer, 55° C., 48 hours): 58.1%
Doxorubicin.HCl % stability (0.9% saline, pH 3.0 buffer, 55° C., 0 hours): 100.0%
Doxorubicin.HCl % stability (0.9% saline, pH 3.0 buffer, 55° C., 16 hours): 91.2%
Doxorubicin.HCl % stability (0.9% saline, pH 3.0 buffer, 55° C., 24 hours): 88.8%
Doxorubicin.HCl % stability (0.9% saline, pH 3.0 buffer, 55° C., 48 hours): 78.8%
Doxorubicin.HCl % stability (0.9% saline, pH 3.0 buffer, 55° C., 72 hours): 69.0%
Doxorubicin.HCl % stability (0.9% saline, pH 3.0 buffer, 55° C., 96 hours): 60.4%
Doxorubicin.HCl % stability (0.9% saline, pH 3.0 buffer, 55° C., 120 hours): 50.3%
Doxorubicin.HCl % stability (0.9% saline, pH 3.5 buffer, 55° C., 0 hours): 100.0%
Doxorubicin.HCl % stability (0.9% saline, pH 3.5 buffer, 55° C., 16 hours): 91.4%
Doxorubicin.HCl % stability (0.9% saline, pH 3.5 buffer, 55° C., 24 hours): 87.2%
Doxorubicin.HCl % stability (0.9% saline, pH 3.5 buffer, 55° C., 48 hours): 77.3%
Doxorubicin.HCl % stability (0.9% saline, pH 3.5 buffer, 55° C., 96 hours): 58.9%
Doxorubicin.HCl % stability (0.9% saline, pH 3.5 buffer, 55° C., 120 hours): 46.0%
Kobs × 10^3 (5% dextrose, Acetate pH 4.0, 55° C.): 209.7 1/days
Kobs × 10^3 (5% dextrose, Acetate pH 5.0, 55° C.): 273.1 1/days
Kobs × 10^3 (5% dextrose, Acetate pH 5.5, 55° C.): 453.7 1/days
Kobs × 10^3 (5% dextrose, Formate pH 3.5, 55° C.): 132.0 1/days
Kobs × 10^3 (5% dextrose, Glycine-HCl pH 2.0, 55° C.): 323.8 1/days
Kobs × 10^3 (5% dextrose, Glycine-HCl pH 2.5, 55° C.): 138.7 1/days
Kobs × 10^3 (5% dextrose, Glycine-HCl pH 3.0, 55° C.): 100.5 1/days
Doxorubicin.HCl % stability (5% dextrose, pH 2.0 buffer, 55° C., 0 hours): 100.0%
Doxorubicin.HCl % stability (5% dextrose, pH 2.0 buffer, 55° C., 8 hours): 92.8%
Doxorubicin.HCl % stability (5% dextrose, pH 2.0 buffer, 55° C., 16 hours): 84.4%
Doxorubicin.HCl % stability (5% dextrose, pH 2.0 buffer, 55° C., 24 hours): 75.9%
Doxorubicin.HCl % stability (5% dextrose, pH 2.0 buffer, 55° C., 34 hours): 68.3%
Doxorubicin.HCl % stability (5% dextrose, pH 2.0 buffer, 55° C., 48 hours): 54.1%
Doxorubicin.HCl % stability (5% dextrose, pH 2.0 buffer, 55° C., 72 hours): 38.4%
Doxorubicin.HCl % stability (5% dextrose, pH 2.5 buffer, 55° C., 0 hours): 100.0%
Doxorubicin.HCl % stability (5% dextrose, pH 2.5 buffer, 55° C., 8 hours): 96.4%
Doxorubicin.HCl % stability (5% dextrose, pH 2.5 buffer, 55° C., 16 hours): 92.6%
Doxorubicin.HCl % stability (5% dextrose, pH 2.5 buffer, 55° C., 24 hours): 89.5%
Doxorubicin.HCl % stability (5% dextrose, pH 2.5 buffer, 55° C., 34 hours): 85.5%
Doxorubicin.HCl % stability (5% dextrose, pH 2.5 buffer, 55° C., 48 hours): 76.2%
Doxorubicin.HCl % stability (5% dextrose, pH 2.5 buffer, 55° C., 72 hours): 66.3%
Doxorubicin.HCl % stability (5% dextrose, pH 3.0 buffer, 55° C., 0 hours): 100.0%
Doxorubicin.HCl % stability (5% dextrose, pH 3.0 buffer, 55° C., 16 hours): 96.6%
Doxorubicin.HCl % stability (5% dextrose, pH 3.0 buffer, 55° C., 24 hours): 92.7%
Doxorubicin.HCl % stability (5% dextrose, pH 3.0 buffer, 55° C., 48 hours): 83.3%
Doxorubicin.HCl % stability (5% dextrose, pH 3.0 buffer, 55° C., 72 hours): 76.4%
Doxorubicin.HCl % stability (5% dextrose, pH 3.0 buffer, 55° C., 96 hours): 68.0%
Doxorubicin.HCl % stability (5% dextrose, pH 3.0 buffer, 55° C., 120 hours): 61.1%
Doxorubicin.HCl % stability (5% dextrose, pH 3.5 buffer, 55° C., 0 hours): 100.0%
Doxorubicin.HCl % stability (5% dextrose, pH 3.5 buffer, 55° C., 16 hours): 95.7%
Doxorubicin.HCl % stability (5% dextrose, pH 3.5 buffer, 55° C., 24 hours): 93.7%
Doxorubicin.HCl % stability (5% dextrose, pH 3.5 buffer, 55° C., 48 hours): 81.8%
Doxorubicin.HCl % stability (5% dextrose, pH 3.5 buffer, 55° C., 72 hours): 66.8%
Doxorubicin.HCl % stability (5% dextrose, pH 3.5 buffer, 55° C., 96 hours): 61.6%
Doxorubicin.HCl % stability (5% dextrose, pH 4.0 buffer, 55° C., 0 hours): 100.0%
Doxorubicin.HCl % stability (5% dextrose, pH 4.0 buffer, 55° C., 8 hours): 95.5%
Doxorubicin.HCl % stability (5% dextrose, pH 4.0 buffer, 55° C., 16 hours): 85.6%
Doxorubicin.HCl % stability (5% dextrose, pH 4.0 buffer, 55° C., 48 hours): 65.5%
Doxorubicin.HCl % stability (5% dextrose, pH 4.0 buffer, 55° C., 72 hours): 53.9%
Doxorubicin.HCl % stability (5% dextrose, pH 5.0 buffer, 55° C., 0 hours): 100.0%
Doxorubicin.HCl % stability (5% dextrose, pH 5.0 buffer, 55° C., 8 hours): 94.7%
Doxorubicin.HCl % stability (5% dextrose, pH 5.0 buffer, 55° C., 16 hours): 83.2%
Doxorubicin.HCl % stability (5% dextrose, pH 5.0 buffer, 55° C., 24 hours): 79.9%
Doxorubicin.HCl % stability (5% dextrose, pH 5.0 buffer, 55° C., 34 hours): 70.4%
Doxorubicin.HCl % stability (5% dextrose, pH 5.0 buffer, 55° C., 48 hours): 57.8%
Doxorubicin.HCl % stability (5% dextrose, pH 5.5 buffer, 55° C., 0 hours): 100.0%
Doxorubicin.HCl % stability (5% dextrose, pH 5.5 buffer, 55° C., 8 hours): 92.5%
Doxorubicin.HCl % stability (5% dextrose, pH 5.5 buffer, 55° C., 16 hours): 73.8%
Doxorubicin.HCl % stability (5% dextrose, pH 5.5 buffer, 55° C., 24 hours): 62.6%
Doxorubicin.HCl % stability (5% dextrose, pH 5.5 buffer, 55° C., 34 hours): 54.8%
Kobs × 10^3 (sterile water, Acetate pH 4.0, 55° C.): 269.8 1/days
Kobs × 10^3 (sterile water, Acetate pH 5.0, 55° C.): 322.6 1/days
Kobs × 10^3 (sterile water, Acetate pH 5.5, 55° C.): 415.4 1/days
Kobs × 10^3 (sterile water, Formate pH 3.5, 55° C.): 96.7 1/days
Kobs × 10^3 (sterile water, Glycine-HCl pH 2.0, 55° C.): 309.5 1/days
Kobs × 10^3 (sterile water, Glycine-HCl pH 2.5, 55° C.): 138.3 1/days
